The values that follow come from ChEMBL document CHEMBL3044842, “Composition and antifungal activity on soil-borne pathogens of the essential oil of Salvia sclarea from Greece” (J Agric Food Chem, 2002).

Common to all, as to type: functional, organism-based
Experiment [1] deals with Fusarium oxysporum f. sp. dianthi. Kind of experiment: Antifungal activity against Fusarium oxysporum f. sp. dianthi after 4 days.
Experiment [2] relates to Stromatinia cepivora. Kind of experiment: Antifungal activity against Sclerotium cepivorum after 4 days.
Experiment [3] deals with Sclerotinia sclerotiorum. The experiment can be described thus: Antifungal activity against Sclerotinia sclerotiorum after 4 days.

The structures appear in SMILES notation.

On to `C=CC(C)(O)CCC=C(C)C` (stereo unspecified) [LINALOOL], for which the values for the EC50 in experiment [1], in experiment [2] and in experiment [3] were 661.76 uL/L, 563.94 uL/L and 146.15 uL/L, respectively.

For `C=CC(C)(CCC=C(C)C)OC(C)=O` (stereo unspecified) [LINALYL ACETATE], the EC50 is on record as above 1500 uL/L in experiment [1], above 1500 uL/L in experiment [2] and 549.62 uL/L in experiment [3].
